From paper PMC8326665, “Branebrutinib (BMS-986195), a Bruton’s Tyrosine Kinase Inhibitor, Resensitizes P-Glycoprotein-Overexpressing Multidrug-Resistant Cancer Cells to Chemotherapeutic Agents” (Frontiers in Cell and Developmental Biology, 2021)

Target: T1, P-glycoprotein (P-gp/ABCB1) (Homo sapiens, UniProt P08183)
T1 construct: full-length human P-gp; MDR1 baculovirus in High-Five insect cell total membranes (ATPase); transfected MDR19-HEK293 cells (calcein efflux)
Assay: vanadate-sensitive ATPase activity, endpoint inorganic phosphate assay, insect cell membranes
Assay type: biochemical
Description: vanadate-sensitive ATPase activity, endpoint inorganic phosphate assay, insect cell membranes on P-glycoprotein (P-gp/ABCB1) | half maximal effective concentration (EC50) value

T1 sequence (P08183 whole entry): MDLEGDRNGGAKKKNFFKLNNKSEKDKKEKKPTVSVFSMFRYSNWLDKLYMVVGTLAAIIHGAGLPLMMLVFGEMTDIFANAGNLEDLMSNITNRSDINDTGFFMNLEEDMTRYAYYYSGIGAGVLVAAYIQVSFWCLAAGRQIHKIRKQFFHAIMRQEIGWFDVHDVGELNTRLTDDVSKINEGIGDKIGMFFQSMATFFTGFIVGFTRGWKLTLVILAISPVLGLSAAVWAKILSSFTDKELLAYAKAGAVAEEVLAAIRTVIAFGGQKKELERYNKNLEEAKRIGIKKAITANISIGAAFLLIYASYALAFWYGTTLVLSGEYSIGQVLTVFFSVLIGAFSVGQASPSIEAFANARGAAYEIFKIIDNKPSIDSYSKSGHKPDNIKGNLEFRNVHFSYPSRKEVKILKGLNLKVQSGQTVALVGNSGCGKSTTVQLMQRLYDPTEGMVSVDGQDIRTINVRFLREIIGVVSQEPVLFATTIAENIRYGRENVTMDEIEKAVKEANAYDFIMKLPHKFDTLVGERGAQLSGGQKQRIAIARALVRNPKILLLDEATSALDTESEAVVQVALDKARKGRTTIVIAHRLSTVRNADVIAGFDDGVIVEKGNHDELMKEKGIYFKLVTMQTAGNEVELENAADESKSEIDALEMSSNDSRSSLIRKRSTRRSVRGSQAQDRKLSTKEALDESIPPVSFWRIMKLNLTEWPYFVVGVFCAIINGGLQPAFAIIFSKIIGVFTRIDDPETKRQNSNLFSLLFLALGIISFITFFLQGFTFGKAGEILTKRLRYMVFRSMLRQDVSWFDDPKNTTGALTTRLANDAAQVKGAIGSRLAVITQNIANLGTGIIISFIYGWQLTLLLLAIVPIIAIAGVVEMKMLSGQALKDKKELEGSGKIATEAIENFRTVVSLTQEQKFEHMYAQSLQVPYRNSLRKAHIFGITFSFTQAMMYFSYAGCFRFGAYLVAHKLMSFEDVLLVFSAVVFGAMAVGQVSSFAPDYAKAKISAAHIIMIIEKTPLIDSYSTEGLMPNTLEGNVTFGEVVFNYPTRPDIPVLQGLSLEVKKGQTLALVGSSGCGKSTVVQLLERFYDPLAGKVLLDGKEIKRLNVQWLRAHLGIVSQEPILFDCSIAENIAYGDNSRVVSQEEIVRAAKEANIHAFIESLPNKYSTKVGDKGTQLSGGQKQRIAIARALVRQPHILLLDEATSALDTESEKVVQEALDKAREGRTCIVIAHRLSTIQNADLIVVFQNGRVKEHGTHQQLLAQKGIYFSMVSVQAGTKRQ

For `CC#CC(=O)N[C@H]1CCCN(c2c(F)cc(C(N)=O)c3[nH]c(C)c(C)c23)C1` [branebrutinib], the EC50 was ~4.5 µM.
